Laboratory results from patent US11066455B2, “Tmem100 peptides and variants thereof and their use in treating or preventing diseases or conditions” (The Johns Hopkins University, priority 2014, dated 2021).
Entries after “also recorded” stand apart in the source; their conditions may differ.

What was measured:
[1] = system: paclitaxel (Taxol)-induced mechanical hyperalgesia in wild-type mice; test: Paclitaxel-induced mechanical hyperalgesia; format: in vivo, mouse; conditions: F2 5 μl 100 μM intradermal injection
Procedure: Mice were placed in a transparent plastic box (4.5×5×10 cm) on a metal mesh and acclimatized for 30 minutes prior to testing. Each mouse was tested more than 5 times at a specific force manually, and the threshold was determined by the lowest force needed to elicit responses more than 50% of the time.
Mice were injected with paclitaxel (Sigma T7191) intraperitoneally at the dose of 6 mg/kg, as previously described (Materazzi et al., 2012). Seven days after paclitaxel injection, the mice were assayed with Von Frey methods for mechanical hyperalgesia, both before and four hours after injection of cell permeable peptides.

[2] = system: T1, TRPA1; test: Calcium imaging of HEK293T cells expressing TRPA1 and TRPV1 (MO or CA); format: cell-based; conditions: shortened CPP 2 μM; CA 10 μM; HEK293 TRPA1+TRPV1; vs scrambled
T1 construct: percentage of cells responsive to CA; other: shortened CPP 2 μM; CA 10 μM; HEK293 TRPA1+TRPV1; vs scrambled; percentage of cells responsive to MO; other: peptide 200 nM pre-treatment; 500 nM MO; HEK293T TRPA1+TRPV1; percentage of cells that respond to 100 nM MO and 10 μM CA; other: HEK293T TRPA1+TRPV1, Tmem100-3Q-transfected vs lacki; reduction in the percentage of cells responding to MO

[3] = system: SNL-induced mechanical hyperalgesia in wild-type mice; test: Spinal nerve ligation (SNL) in wild-type mice, mechanical hyperalgesia; format: in vivo, mouse; conditions: day 6 post ligation, 4 hrs post CPP; 5 μl of 2 mM intradermal in hindpaws
Procedure: In the wild-type mice with spinal nerve ligation (SNL), mechanical hyperalgesia is observed 6 days post ligation. Palmitoylated (Pal) CPP tailored to the C-terminus of human Tmem100-3Q alleviates neuropathic pain/mechanical allodynia in SNL. n=6, *p<0.05 at Day 6 4 hrs post CPP treatment. Scrambled: open bar; human P2-Mut (T100-Mut): black bar (FIG. 17). Peptides (5 μl of 2 mM) were injected intradermally in the hindpaws. Sequences for CPP used in the SNL experiment:
Human P2-Mut (T100-Mut) Pal-[…]-OH (SEQ ID NO: 7); Scrambled Pal-[…]-OH (SEQ ID NO: 19). Pal-palmitoylated in the N termini for each CPP.

Substance: F2: shortened CPP consisting of the first 18 amino acids of the T100-Mut (SEQ ID NO: 17) (WKVRQRNKKVQQQESQTA; listed as Mus musculus)
- paclitaxel-induced mechanical hyperalgesia [1]: effective
- percentage of cells responsive to CA [2]: significantly reduced; also recorded: same inhibitory effects
- SNL-induced mechanical hyperalgesia / allodynia in mice [3]: blocked
